In patent US8722681B2, “N-sulfonyl thiazolylpiperazine derivatives and related N-sulfonyl heterocyclic derivatives for the treatment of neuro degenerative diseases” (NV reMYND, priority 2007, dated 2014):

Columns and labels:
M17-SYNwt cells [1] = assay type: cell-based, human; conditions: M17-SYNwt cells treated with paraquat; not seen in M17 cells; FIG. 1
Text: (§1) Due to the high levels of α-synuclein M17-SYNwt cells are exquisitely sensitivity to paraquat, a well-known risk factor of synuclein-dependent neuronal degeneration. In degenerated or dead cells lactate dehydrogenase (LDH) is leaked out of the cells into the extracellular environment due to a loss of plasma-membrane integrity. This principle was used to determine cytotoxicity by quantifying the level of leaked LDH into the growth medium.
(§2) The detailed method for determining α-synuclein cytotoxicity was as follows: From appropriate precultures of M17 and M17-SYN cells were seeded at 50000 cells/cm^2 in Optimem Reduced Serum without phenol red (InVitrogen, Cat. 31985-047) supplemented with 5% fetal calf serum, 1 mM sodium pyruvate, 1×non-essential amino acids, 500 μg/ml G418 0.5×antibiotic/antimycotic. After 3 hours of incubation at 37° C./5% CO2 paraquat was added to the cells (final concentration of 32 mM), together with the test compound and the cells were further incubated for 40 hours. Subsequently, LDH activity was determined using Promega Cytotox 96 Non-Radioactive cytotoxicity assay, (Cat. G1780) according the supplier's instructions.

M17-SYNwt cells [2] = experiment: α-synuclein cytotoxicity assay (LDH leakage from paraquat-treated M17-SYNwt cells); assay type: cell-based, human; conditions: for EC50: M17-SYNwt cells, paraquat 32 mM, 40 hours, LDH activity; for % inh. (percentage inhibition) / % I (percentage inhibition): inhibition of synuclein toxicity at most effective concentration relative to untreated paraquat cells
Text: An α-synuclein expression plasmid was constructed by sub-cloning the NcoI/XhoI fragment from 212T-SYN(WT) (Griffioen et al., Biochem Biophys Acta (2006) 1762(3):312-318) containing the cDNA of human wild type α-synuclein correspondingly into a standard mammalian expression vector pcDNA3.1 resulting in plasmid pcDNA3.1-SYNwt. Plasmid pcDNA3.1 and pcDNA3.1-SYNwt were transfected to human neuroblastoma cells (ATCC No. CRL-2267) and independent clonal lines with the plasmids stably integrated into the genome were selected. […] Over-expression of α-synuclein in M17-SYNwt cell lines was confirmed by Western analysis.
as §1, §2
This α-synuclein expressing neuroblastoma cells made it possible to assess the ability of novel compounds to counteract α-synuclein cytotoxicity. […] Since this method monitors leaked LDH from degenerated or dead cells only non-toxic compounds will be identified as active inhibitors of α-synuclein-mediated cytotoxicity. Lack of toxicity is an important characteristic for compounds to be used as a medicament to patients in need. A compound was considered to be active in this test when it inhibits α-synuclein cytotoxicity by more than 25% relative to untreated M17-SYNwt cells at a concentration of 20 μg/mL or lower. In the experiments, the control group consisted of M17-SYNwt cells treated with DMSO, the untreated paraquat group consisted of M17-SYNwt cells treated with paraquat and DMSO, and the treated paraquat group consisted of M17-SYNwt cells treated with paraquat and the test compound dissolved in DMSO.
Percent inhibition was calculated as the synuclein toxicity inhibition by the compound in treated paraquat cells, relative to the synuclein cytotoxicity in untreated paraquat cells.
The compounds from table 1 were screened for activity using the α-synuclein cytotoxicity assay as described above. Dose responses were carried out on all compounds found to be active (10 point curves in duplicate).

Structure (SMILES) | EC50 (M17-SYNwt cells [2]; Homo sapiens, Table 2) [µM] | % inh. (percentage inhibition) (M17-SYNwt cells [2]; Table 2) [%] | further results
C[n+]1ccc(-c2cc[n+](C)cc2)cc1 [paraquat] |  |  | level of LDH leaked into the medium (M17-SYNwt cells [1]): relatively high level
O=S(=O)(c1ccc(Cl)s1)N1CCN(c2nc(-c3ccccc3)cs2)CC1 [Compound 56, 1-(5-chlorothiophen-2-ylsulfonyl)-4-(4-phenylthiazol-2-yl)piperazine] | 0.752 | 98 | 
COc1ccc(-c2csc(N3CCN(S(=O)(=O)c4cccs4)CC3)n2)cc1 [Compound 57, 1-(thiophen-2-ylsulfonyl)-4-(4-(4-methoxyphenyl)thiazol-2-yl)piperazine] | 0.721 | 88 | 
COc1ccc(S(=O)(=O)N2CCN(c3nc(-c4ccc(F)cc4)cs3)CC2)cc1 [Compound 1, 1-[4-(4-fluorophenyl)-1,3-thiazol-2-yl]-4-[(4-methoxyphenyl)-sulfonyl]-piperazine] |  |  | EC50 (M17-SYNwt cells [2]; Homo sapiens, Table 1): 0.024 µM; % I (percentage inhibition) (M17-SYNwt cells [2]; Table 1): 100%
COc1ccc(S(=O)(=O)N2CCN(c3nc(Cc4ccc5c(c4)OCO5)cs3)CC2)cc1 [Compound 18, 1-(4-(benzo[d][1,3]dioxol-5-ylmethyl)thiazol-2-yl)-4-(4-methoxyphenylsulfonyl)piperazine] | 0.0228 | 19 | 
COc1ccc(F)cc1S(=O)(=O)N1CCN(c2nc(-c3ccc(C)cc3)cs2)CC1 [Compound 50, 1-(5-fluoro-2-methoxyphenylsulfonyl)-4-(4-(4-methylphenyl)thiazol-2-yl)piperazine] | 1.77 | 104 | 
COc1cccc(Cc2csc(N3CCN(S(=O)(=O)c4ccc(NC(C)=O)cc4)CC3)n2)c1 [Compound 27, N-(4-(4-(4-(3-methoxybenzyl)thiazol-2-yl)piperazin-1-ylsulfonyl)phenyl)acetamide] | 0.25 | 91 | 
O=S(=O)(c1ccc(F)cc1)N1CCN(c2nc(-c3ccc(F)cc3)cs2)CC1 [Compound 9] |  |  | EC50 (M17-SYNwt cells [2]; Homo sapiens, Table 1): 0.833 µM; % I (percentage inhibition) (M17-SYNwt cells [2]; Table 1): 81%
COc1ccc(Cc2csc(N3CCN(S(=O)(=O)c4ccc(OC)cc4)CC3)n2)cc1 [Compound 14, 1-(4-(4-methoxybenzyl)thiazol-2-yl)-4-(4-methoxyphenylsulfonyl)piperazine] | 0.0466 | 90 | 
COc1ccc(S(=O)(=O)N2CCN(c3nc(-c4ccncc4)cs3)CC2)cc1 [Compound 49, 1-(4-methoxyphenylsulfonyl)-4-(4-(pyridin-4-yl)thiazol-2-yl)piperazine] | 0.075 | 114 | 
COC(=O)COc1ccc(S(=O)(=O)N2CCN(c3nc(-c4ccc(C)cc4)cs3)CC2)cc1 [Compound 33, Methyl 2-(4-(4-(4-p-tolylthiazol-2-yl)piperazin-1-ylsulfonyl)phenoxy)acetate] | 0.0516 | 21 | 
O=[N+]([O-])c1cccc(-c2csc(N3CCN(S(=O)(=O)c4ccc5c(c4)OCCO5)CC3)n2)c1 [Compound 72, 1-(2,3-dihydrobenzo[b][1,4]dioxin-6-ylsulfonyl)-4-(4-(3-nitrophenyl)thiazol-2-yl)piperazine] | 23.5 | 85 | 
O=[N+]([O-])c1ccc(-c2csc(N3CCN(S(=O)(=O)c4cccs4)CC3)n2)cc1 [Compound 60, 1-(thiophen-2-ylsulfonyl)-4-(4-(4-nitrophenyl)thiazol-2-yl)piperazine] | 1.24 | 79 | 
COc1cccc(Cc2csc(N3CCN(S(=O)(=O)c4ccc(C)cc4)CC3)n2)c1 [Compound 28, 1-(4-(3-methoxybenzyl)thiazol-2-yl)-4-tosylpiperazine] | 1.89 | 165 | 
COc1cccc(-c2csc(N3CCN(S(=O)(=O)c4ccc(F)cc4)CC3)n2)c1 [Compound 35, 1-(4-fluorophenylsulfonyl)-4-(4-(3-methoxyphenyl)thiazol-2-yl)piperazine] |  | 90 | EC50 (M17-SYNwt cells [2]; Table 2): 0.216 µM
O=S(=O)(c1cccnc1)N1CCN(c2nc(-c3ccc(F)cc3)cs2)CC1 [Compound 54, 1-(4-(4-fluorophenyl)thiazol-2-yl)-4-(pyridin-3-ylsulfonyl)piperazine] | 1.23 | 91 | 
O=S(=O)(c1ccc2c(c1)OCCO2)N1CCN(c2nc(-c3ccccc3)cs2)CC1 [Compound 69, 1-(2,3-dihydrobenzo[b][1,4]dioxin-6-ylsulfonyl)-4-(4-phenylthiazol-2-yl)piperazine] | 0.434 | 89 | 
COc1ccc(S(=O)(=O)N2CCC(c3nc(Cc4cccc(OC)c4)cs3)CC2)cc1 [Compound 31, 4-(4-(3-methoxybenzyl)thiazol-2-yl)-1-(4-methoxyphenylsulfonyl)piperidine] | 0.0066 | 66 | 
COc1ccc(-c2csc(N3CCN(S(=O)(=O)c4ccc5c(c4)OCCO5)CC3)n2)cc1 [Compound 70, 1-(2,3-dihydrobenzo[b][1,4]dioxin-6-ylsulfonyl)-4-(4-(4-methoxyphenyl)thiazol-2-yl)piperazine] | 1.96 | 83 | 
O=S(=O)(c1ccc(Br)cc1)N1CCN(c2nc(-c3ccc(F)cc3)cs2)CC1 [Compound 7] |  |  | EC50 (M17-SYNwt cells [2]; Homo sapiens, Table 1): 0.327 µM; % I (percentage inhibition) (M17-SYNwt cells [2]; Table 1): 94%
COc1cccc(Cc2csc(N3CCN(S(=O)(=O)c4ccccn4)CC3)n2)c1 [Compound 21, 1-(4-(3-methoxybenzyl)thiazol-2-yl)-4-(pyridin-2-ylsulfonyl)piperazine] | 2.44 | 116 | 
Cc1ccc(S(=O)(=O)N2CCN(c3nc(-c4ccccc4)cs3)CC2)cc1 [Compound 44, 1-(4-phenylthiazol-2-yl)-4-tosylpiperazine] | 0.197 | 72 | 
COc1cccc(Cc2csc(N3CCN(S(=O)(=O)c4c(C)n[nH]c4C)CC3)n2)c1 [Compound 23, 1-(4-(3-methoxybenzyl)thiazol-2-yl)-4-(3,5-dimethyl-1H-pyrazol-4-ylsulfonyl)piperazine] | 1.29 | 95 | 
O=[N+]([O-])c1ccc(-c2csc(N3CCN(S(=O)(=O)c4ccc5c(c4)OCCO5)CC3)n2)cc1 [Compound 71, 1-(2,3-dihydrobenzo[b][1,4]dioxin-6-ylsulfonyl)-4-(4-(4-nitrophenyl)thiazol-2-yl)piperazine] | 1.44 | 77 | 
COc1ccc(-c2csc(N3CCN(S(=O)(=O)c4ccc(OC)c(OC)c4)CC3)n2)cc1 [Compound 38, 1-(3,4-dimethoxyphenylsulfonyl)-4-(4-(4-methoxyphenyl)thiazol-2-yl)piperazine] | 1.06 | 65 | 
COc1ccc(S(=O)(=O)N2CCN(c3nc(Cc4ccccc4OC)cs3)CC2)cc1 [Compound 15, 1-(4-(2-methoxybenzyl)thiazol-2-yl)-4-(4-methoxyphenylsulfonyl)piperazine] | 0.017 | 71 | 
O=S(=O)(C1CCCCC1Br)N1CCN(c2nc(-c3ccc(F)cc3)cs2)CC1 (centres unmarked) [Compound 8] |  |  | EC50 (M17-SYNwt cells [2]; Homo sapiens, Table 1): 0.568 µM; % I (percentage inhibition) (M17-SYNwt cells [2]; Table 1): 88%
O=S(=O)(c1ccc2ccccc2c1)N1CCN(c2nc(-c3ccc(Cl)cc3)cs2)CC1 [Compound 75, 1-(4-(4-chlorophenyl)thiazol-2-yl)-4-(naphthalen-2-ylsulfonyl)piperazine] | 0.87 | 84 | 
COc1cccc(-c2csc(N3CCN(S(=O)(=O)c4ccc(F)cc4)CC3)n2)c1 [Compound 5] |  |  | EC50 (M17-SYNwt cells [2]; Homo sapiens, Table 1): 0.216 µM; % I (percentage inhibition) (M17-SYNwt cells [2]; Table 1): 90%
COc1cccc(Cc2csc(N3CCN(S(=O)(=O)c4cccc5c4ccn5C)CC3)n2)c1 [Compound 24, 4-(4-(4-(3-methoxybenzyl)thiazol-2-yl)piperazin-1-ylsulfonyl)-1-methyl-1H-indole] | 1.17 | 82 | 
